Patent US20170209445A1, “KINASE INHIBITORS” (Respivert Limited, priority 2014, published 2017)

How the values were obtained:
[1] = molecular target: T1, p38 MAPKα (Homo sapiens, UniProt Q16539); experiment: p38 MAPKα enzyme inhibition (Method 2), FRET Z-LYTE; assay type: biochemical
T1 construct: purchased Invitrogen
Procedure: (§1) The enzyme inhibitory activities of compounds disclosed herein are determined by FRET using synthetic peptides labelled with both donor and acceptor fluorophores (Z-LYTE, Invitrogen Ltd., Paisley, UK).
The inhibitory activities of test compounds against the p38 MAPKα isoform (MAPK14: Invitrogen), are evaluated indirectly by determining the level of activation/phosphorylation of the down-stream molecule, MAPKAP-K2. The p38 MAPKα protein (80 ng/mL, 2.5 μL) is mixed with the test compound (2.5 μL of either 4 μg/mL, 0.4 μg/mL, 0.04 μg/mL or 0.004 μg/mL) for 2 hr at RT. […] The mixture is incubated for 1 hr at RT. Development reagent (protease, 5 μL) is added for 1 hr prior to detection in a fluorescence microplate reader (Varioskan® Flash, ThermoFisher Scientific).
This method follows the same steps as Method 1 above, but utilises a higher concentration of the p38 MAPKα protein (2.5 μL of 200 ng/mL protein instead of 2.5 μL of 80 ng/mL protein) for mixing with the test compound.
(§2) In all cases, the site-specific protease cleaves non-phosphorylated peptide only and eliminates the FRET signal. Phosphorylation levels of each reaction are calculated using the ratio of coumarin emission (donor) over fluorescein emission (acceptor), for which high ratios indicate high phosphorylation and low ratios indicate low phosphorylation levels.

[2] = molecular target: T2, c-Src (Homo sapiens, UniProt P12931); experiment: c-Src enzyme inhibition, FRET Z-LYTE; assay type: biochemical
T2 construct: purchased Invitrogen
Procedure: as §1
(§3) The inhibitory activities of compounds of the invention against c-Src and Syk enzymes (Invitrogen), are evaluated in a similar fashion to that described hereinabove. The relevant enzyme (3000 ng/mL or 2000 ng/mL respectively, 2.5 μL) is incubated with the test compound (either 4 μg/mL, 0.4 μg/mL, 0.04 μg/mL, or 0.004 μg/mL, 2.5 μL each) for 2 hr at RT. The FRET peptides (8 μM, 2.5 μL), and appropriate ATP solutions (2.5 μL, 800 μM for c-Src, and 60 μM ATP for Syk) are then added to the enzymes/compound mixtures and incubated for 1 hr. Development reagent (protease, 5 μL) is added for 1 hr prior to detection in a fluorescence microplate reader (Varioskan® Flash, ThermoFisher Scientific).
as §2

[3] = molecular target: T3, Syk (Homo sapiens, UniProt P43405); experiment: Syk enzyme inhibition, FRET Z-LYTE; assay type: biochemical
T3 construct: purchased Invitrogen
Procedure: as §1, §3, §2

[4] = tested on: PBMCs; experiment: LPS-induced IL-8 release in PBMC cells; assay type: cell-based; details: Homo sapiens, LPS-stimulated PBMCs, read-out: IC50 Values for Inhibition of Cytokine Release PBMCs IL-8
Method in brief: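 Healthy-donor PBMCs isolated by density gradient were pretreated with compound for 2 h, then stimulated with 1 ng/mL LPS (E. coli 0111:B4) for 24 h at 37° C., 5% CO2. IL-8 and TNFα in supernatants measured by sandwich ELISA.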

[5] = tested on: PBMCs; experiment: IFN gamma release in CD3/CD28 stimulated PBMC cells; assay type: cell-based; details: Homo sapiens, read-out: IC50 Values for Inhibition of Cytokine Release PBMCs IFNγ
Procedure: (§4) PBMCs from healthy subjects are separated from whole blood using a density gradient (Lymphoprep, Axis-Shield Healthcare). Cells are added to a 96 well plate pre-coated with a mixture of CD3/CD28 monoclonal antibodies (0.3 μg/mL eBioscience and 3 μg/mL BD Pharmingen respectively). Compound at the desired concentration is then added to the wells and the plate left for 3 days under normal tissue culture conditions. Supernatants are harvested and IL-2 and IFN gamma release determined by Sandwich ELISA (Duo-set, R&D System). The IC50 is determined from the dose response curve.

[6] = tested on: Jurkat cells; experiment: Cell cytotoxicity assay (Jurkat cell viability); assay type: cell-based, human; details: 24 hours
Procedure: 1×10^5 Jurkat cells (immortalised human T lymphocytes) are added to the appropriate number of wells of a 96 well plate in 100 μL of media (RPMI supplemented with 10% foetal bovine serum). 1 μL of DMSO control (final concentration 1.0% v/v) or test compound (final concentration 20, 5 or 1 μg/mL) is added to the wells and incubated at 37° C., 5% CO2. After 24 hours, the plate is centrifuged at 1200 rpm for 3 minutes and the supernatant discarded. Cells are then resuspended in 150 μL (final concentration 7.5 μg/mL) of propidium iodide (PI) in PBS and incubated at 37° C., 5% CO2 for 15 minutes. After 15 minutes, cells are analysed by flow cytometry (BD accuri) using the FL3 window. The % viability is calculated as the % of cells that are PI negative in the test wells normalised to the DMSO control.

[7] = molecular target: T4, GSK3α (Homo sapiens, UniProt P49840); experiment: GSK3α enzyme inhibition (Method 2), FRET Z-LYTE; assay type: biochemical
T4 construct: purchased Invitrogen
Procedure: as §1
The inhibitory activities of compounds of the invention against the GSK 3α enzyme isoform (Invitrogen), are evaluated by determining the level of activation/phosphorylation of the target peptide. The GSK3-α protein (500 ng/mL, 2.5 μL) is mixed with the test compound (2.5 μL at either 4 μg/mL, 0.4 μg/mL, 0.04 μg/mL, or 0.004 μg/mL) for 2 hr at RT. The FRET peptide (8 μM, 2.5 μL), which is a phosphorylation target for GSK3α, and ATP (40 μM, 2.5 μL) are then added to the enzyme/compound mixture and the resulting mixture incubated for 1 hr. Development reagent (protease, 5 μL) is added for 1 hr prior to detection in a fluorescence microplate reader (Varioskan® Flash, ThermoFisher Scientific).
as §2
This method follows the same steps as Method 1 above, but utilises a shorter period of mixing of the test compound (105 minutes instead of 2 hours) with the GSK3-α protein.

[8] = tested on: PBMCs; experiment: IL-2 release in CD3/CD28 stimulated PBMC cells; assay type: cell-based; details: Homo sapiens, read-out: IC50 Values for Inhibition of Cytokine Release PBMCs IL-2
Procedure: as §4

[9] = molecular target: T5, Lck (Homo sapiens, UniProt P06239); experiment: KINOMEscan dissociation constant, Lck; assay type: binding
T5 construct: purchased DiscoveRx Corporation (LeadHunter Discover Services, KINOMEscan)
Procedure: (§5) Kinase enzyme binding activities of compounds disclosed herein may be determined using a proprietary assay which measures active site-directed competition binding to an immobilized ligand (Fabian, M. A. et al., Nature Biotechnol., 2005, 23:329-336). These assays may be conducted by DiscoverX (formerly Ambit; San Diego, Calif.). The percentage inhibition produced by incubation with a test compound may be calculated relative to the non-inhibited control.

[10] = molecular target: T1, p38 MAPKα; experiment: KINOMEscan dissociation constant, p38 MAPKα; assay type: binding
Procedure: as §5

[11] = molecular target: T3, Syk; experiment: KINOMEscan dissociation constant, Syk; assay type: binding
Procedure: as §5

[12] = tested on: PBMCs; experiment: Cell mitosis assay in PBMCs; assay type: cell-based, human
Procedure: Peripheral blood mononucleocytes (PBMCs) from healthy subjects are separated from whole blood (Quintiles, London, UK) using a density gradient (Histopaque®-1077, Sigma-Aldrich, Poole, UK). The PBMCs (3 million cells per sample) are subsequently treated with 2% PHA (phytohaemagglutinin, Sigma-Aldrich, Poole, UK) for 48 hr, followed by a 20 hr exposure to varying concentrations of test compounds. At 2 hr before collection, PBMCs are treated with demecolcine (0.1 μg/mL; Invitrogen, Paisley, UK) to arrest cells in metaphase. To observe mitotic cells, PBMCs are permeabilised and fixed by adding Intraprep (50 μL; Beckman Coulter, France), and stained with anti-phospho-histone 3 (0.26 ng/L; #9701; Cell Signalling, Danvers, Mass.) and propidium iodide (1 mg/mL; Sigma-Aldrich, Poole, UK) as previously described (Muehlbauer P. A. and Schuler M. J., Mutation Research, 2003, 537:117-130). Fluorescence is observed using an ATTUNE flow cytometer (Invitrogen, Paisley, UK), gating for lymphocytes.

T2 sequence (P12931 whole entry): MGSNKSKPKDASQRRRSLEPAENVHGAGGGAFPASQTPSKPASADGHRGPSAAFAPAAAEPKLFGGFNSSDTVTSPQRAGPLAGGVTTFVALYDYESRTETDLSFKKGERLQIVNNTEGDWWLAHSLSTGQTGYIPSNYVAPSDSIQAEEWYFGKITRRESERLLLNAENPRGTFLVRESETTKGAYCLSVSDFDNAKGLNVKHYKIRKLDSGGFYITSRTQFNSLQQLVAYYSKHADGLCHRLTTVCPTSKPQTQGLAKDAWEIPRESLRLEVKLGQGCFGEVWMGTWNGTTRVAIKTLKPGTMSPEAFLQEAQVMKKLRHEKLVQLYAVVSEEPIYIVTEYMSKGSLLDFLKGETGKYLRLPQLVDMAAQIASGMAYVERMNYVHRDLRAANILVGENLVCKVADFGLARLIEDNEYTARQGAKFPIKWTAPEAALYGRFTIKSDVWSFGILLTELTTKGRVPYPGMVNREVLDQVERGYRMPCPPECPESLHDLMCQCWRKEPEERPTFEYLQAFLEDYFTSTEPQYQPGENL
T1 sequence (Q16539 whole entry): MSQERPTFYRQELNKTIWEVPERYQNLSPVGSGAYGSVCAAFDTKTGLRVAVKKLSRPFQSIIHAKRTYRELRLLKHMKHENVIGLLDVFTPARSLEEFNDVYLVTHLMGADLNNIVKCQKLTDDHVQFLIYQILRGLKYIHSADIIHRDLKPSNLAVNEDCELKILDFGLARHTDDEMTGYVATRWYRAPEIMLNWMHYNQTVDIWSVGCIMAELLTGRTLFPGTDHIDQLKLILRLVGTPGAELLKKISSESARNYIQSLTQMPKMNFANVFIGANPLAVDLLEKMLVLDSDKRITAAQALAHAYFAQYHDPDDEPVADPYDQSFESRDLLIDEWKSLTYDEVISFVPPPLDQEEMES
T4 sequence (P49840 whole entry): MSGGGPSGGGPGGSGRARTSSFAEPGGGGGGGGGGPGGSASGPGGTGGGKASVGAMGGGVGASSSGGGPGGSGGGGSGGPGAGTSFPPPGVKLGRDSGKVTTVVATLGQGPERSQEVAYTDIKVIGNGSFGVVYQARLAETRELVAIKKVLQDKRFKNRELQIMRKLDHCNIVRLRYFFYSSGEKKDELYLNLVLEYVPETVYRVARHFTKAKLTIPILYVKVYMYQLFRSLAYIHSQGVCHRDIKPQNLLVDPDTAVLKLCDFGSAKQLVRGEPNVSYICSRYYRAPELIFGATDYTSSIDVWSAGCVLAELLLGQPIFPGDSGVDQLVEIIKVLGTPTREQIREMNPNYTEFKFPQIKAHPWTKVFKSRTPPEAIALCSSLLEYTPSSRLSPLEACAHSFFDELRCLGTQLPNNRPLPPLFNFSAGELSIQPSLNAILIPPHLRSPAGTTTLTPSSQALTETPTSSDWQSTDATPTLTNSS
T5 sequence (P06239 whole entry): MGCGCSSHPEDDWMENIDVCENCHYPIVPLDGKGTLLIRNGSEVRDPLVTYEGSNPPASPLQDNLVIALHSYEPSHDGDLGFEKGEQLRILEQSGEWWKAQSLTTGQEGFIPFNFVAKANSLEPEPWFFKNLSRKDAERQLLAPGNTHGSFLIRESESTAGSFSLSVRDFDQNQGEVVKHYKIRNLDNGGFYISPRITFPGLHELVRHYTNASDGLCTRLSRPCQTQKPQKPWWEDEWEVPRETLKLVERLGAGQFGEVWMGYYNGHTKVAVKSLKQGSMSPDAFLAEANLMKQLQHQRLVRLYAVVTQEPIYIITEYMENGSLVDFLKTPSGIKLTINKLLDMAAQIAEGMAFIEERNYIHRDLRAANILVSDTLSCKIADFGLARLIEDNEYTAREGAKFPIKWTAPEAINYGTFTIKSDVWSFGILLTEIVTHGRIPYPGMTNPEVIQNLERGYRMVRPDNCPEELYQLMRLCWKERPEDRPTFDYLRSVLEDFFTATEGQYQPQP

COc1c(NC(=O)c2ccc(C)c(-c3ccc4nc(Nc5cc(OS(C)(=O)=O)cc(C(=O)NCCN6CCOCC6)c5)ncc4c3)c2)cc(C(C)(C)C)cc1NS(C)(=O)=O [Example 10, 3-((6-(5-((5-(tert-Butyl)-2-methoxy-3-(methylsulfonamido)phenyl)carbamoyl)-2-methylphenyl)-quinazolin-2-yl)amino)-5-((2-morpholinoethyl)carbamoyl)phenyl methanesulfonate]
IC50 [1]: 24 nM
IC50 [2]: 20 nM
IC50 [3]: > 1160 nM
IC50 [4]: 3.5 nM
IC50 [5]: 13.1 nM
% Viability at 1 μg/mL [6]: 91.5%
% Viability at 5 μg/mL [6]: 82.5%
% Viability at 20 μg/mL [6]: 77.8%

COc1cc(Nc2ncc3cc(-c4cc(C(=O)Nc5cc(C(C)(C)C)cc(NS(C)(=O)=O)c5OC)ccc4C)ccc3n2)ccc1C(=O)N1CCS(=O)(=O)CC1 [Example 12, N-(5-(tert-Butyl)-2-methoxy-3-(methylsulfonamido)phenyl)-3-(2-((4-(1,1-dioxidothiomorpholine-4-carbonyl)-3-methoxyphenyl)amino)quinazolin-6-yl)-4-methylbenzamide]
IC50 [1]: 8 nM
IC50 [2]: 4 nM
IC50 [3]: 190 nM
IC50 [4]: 2.3 nM
IC50 [5]: 12.6 nM
% Viability at 1 μg/mL [6]: 86.4%
% Viability at 5 μg/mL [6]: 79.3%
% Viability at 20 μg/mL [6]: 81.0%

COc1cc(Nc2ncc3cc(-c4cc(C(=O)Nc5cc(C(C)(C)C)cc(NS(C)(=O)=O)c5OC)ccc4C)ccc3n2)cc(C(=O)NCCN2CCOCC2)c1 [Example 5, N-(5-(tert-butyl)-2-methoxy-3-(methylsulfonamido)phenyl)-3-(2-((3-methoxy-5-((2-morpholinoethyl)carbamoyl)phenyl)amino)quinazolin-6-yl)-4-methylbenzamide]
IC50 [7]: > 12600 nM
IC50 [4]: 10.3 nM
IC50 [8]: 38.7 nM
IC50 [5]: 30.4 nM
% Viability at 1 μg/mL [6]: 116.5%
% Viability at 5 μg/mL [6]: 48.8%
% Viability at 20 μg/mL [6]: 44.6%

COc1cc(Nc2ncc3cc(-c4cc(C(=O)Nc5cc(C(C)(C)C)cc(C(N)=O)c5OC)ccc4C)ccc3n2)cc(C(=O)NCCN2CCOCC2)c1 [Example 3, N-(5-(tert-Butyl)-3-carbamoyl-2-methoxyphenyl)-3-(2-((3-methoxy-5-((2-morpholinoethyl)-carbamoyl)phenyl)amino)quinazolin-6-yl)-4-methylbenzamide]
Kd [9]: 6.7 nM
Kd [10]: 3.9 nM
Kd [11]: 50 nM
IC50 [1]: 12 nM
IC50 [2]: 18 nM
IC50 [3]: 781 nM
IC50 [7]: > 13100 nM
IC50 [4]: 8 nM
IC50 [8]: 16.5 nM
IC50 [5]: 18.4 nM
inhibition at 5 µg/mL ([12]; Homo sapiens, PBMC, PBMCs, 5 μg/mL): 66.3%
impact on cell division (mitosis) in PBMCs, in words ([12]; assay (g), compared with Reference Compound A): markedly less active than the Reference Compound A
% Viability at 1 μg/mL [6]: 100.4%
% Viability at 5 μg/mL [6]: 82.9%
% Viability at 20 μg/mL [6]: 77.5%
